Data as given in US20240116985A1, “STAPLED PEPTIDES AND METHODS THEREOF” (priority 2020, published 2024).
Converted amounts (≈) assume the structure as drawn. Read-outs that look alike come from different tables or passages of the source.

Experiments:
Solubility in PBS = type: physicochemical
Outline: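 HPLC quantitation of peptide remaining in the PBS supernatant after ultracentrifugation, referenced to a 50 μM solution in DMSO.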

[1] = molecular target: T1, beta-catenin/TCF4 engagement (Homo sapiens, UniProt P35222); assay: Nano-BRET target engagement assay (B-cat-Halo & TCF4-Luc in HEK293 cells); type: cell-based; conditions: absolute IC50; read-out: NanoBRET Abs IC50
T1 construct: expressed in transfected cells; host or cells: HEK293
T1 sequence (P35222 1-781): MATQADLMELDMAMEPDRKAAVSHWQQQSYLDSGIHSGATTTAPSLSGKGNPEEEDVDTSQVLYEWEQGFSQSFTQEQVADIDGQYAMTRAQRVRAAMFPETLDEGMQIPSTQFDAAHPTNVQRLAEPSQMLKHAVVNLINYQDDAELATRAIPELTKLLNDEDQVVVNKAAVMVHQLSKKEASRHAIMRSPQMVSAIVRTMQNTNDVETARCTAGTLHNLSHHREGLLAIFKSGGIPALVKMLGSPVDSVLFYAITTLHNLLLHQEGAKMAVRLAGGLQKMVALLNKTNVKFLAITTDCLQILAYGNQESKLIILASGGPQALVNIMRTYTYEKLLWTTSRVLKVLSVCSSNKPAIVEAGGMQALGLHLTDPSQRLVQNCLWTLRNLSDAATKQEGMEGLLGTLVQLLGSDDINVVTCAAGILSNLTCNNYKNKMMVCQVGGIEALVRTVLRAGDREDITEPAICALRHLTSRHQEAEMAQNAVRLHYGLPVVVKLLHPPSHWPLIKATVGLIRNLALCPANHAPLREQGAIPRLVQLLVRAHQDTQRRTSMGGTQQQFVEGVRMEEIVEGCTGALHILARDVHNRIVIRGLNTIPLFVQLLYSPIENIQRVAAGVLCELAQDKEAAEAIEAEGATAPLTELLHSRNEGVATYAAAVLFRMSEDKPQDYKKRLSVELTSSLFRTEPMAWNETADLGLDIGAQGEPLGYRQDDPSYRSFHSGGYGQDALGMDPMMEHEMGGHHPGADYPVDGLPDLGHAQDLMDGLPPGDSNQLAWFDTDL

CHI Log D procedure = type: physicochemical; conditions: for chromatographic logD: pH 7.4, CHI Log D; for CHI Log D: pH 7.4
[2] = molecular target: T2, full-length beta-Catenin (Uniprot ID P35222) (Homo sapiens, UniProt P35222); assay: Fluorescence polarization IC50 (beta-catenin / 5FAM-TCF4 10-53 competition); type: binding
T2 construct: 10 nM full-length beta-Catenin (Uniprot ID P35222)
T2 sequence (P35222 1-781): T1 sequence (P35222 1-781)

[3] = fluorescence polarization, read-out: beta-Catenin FP IC50

Compound | Solubility (Solubility in PBS; Solubility (uM)) | IC50 [1] | chromatographic logD (CHI Log D procedure) | IC50 [2, 3] | Solubility (Solubility in PBS) | CHI Log D (CHI Log D procedure) | IC50 ([2]; read-out: FP EC50)
CC(=O)N1CCC[C@]12CC=CCCCC1(CCCC=CCCCCCC[C@@](C)(C(=O)N[C@@H](Cc3ccccc3)C(=O)N[C@@H](Cc3csc4ccccc34)C(=O)N[C@@H](CCC(N)=O)C(N)=O)NC(=O)[C@H](CCC(N)=O)NC(=O)[C@H](Cc3ccccc3)NC(=O)[C@H](C)NC(=O)[C@H](C)NC(=O)[C@H](CCC(=O)O)NC(=O)[C@H](CC(=O)O)NC1=O)NC(=O)[C@H](CCC(C)C)NC(=O)[C@H](CC(=O)O)NC2=O (stereo partly drawn) [I-545, Ac-PL3-Asp-hLeu-B5-Asp-Glu-Ala-Ala-Phe-Gln-S8-Phe-BztA-Gln-NH2] | 46 µM (≈ 87.3 µg/mL) | 3500 nM | 2.57 | 21 nM |  |  | 
CC(=O)N1CCC[C@]12CC=CCCCC1(CCCC=CCCCCCC[C@@](C)(C(=O)N[C@@H](Cc3ccccc3)C(=O)N[C@@H](Cc3csc4ccccc34)C(=O)N[C@@H](CCC(N)=O)C(N)=O)NC(=O)[C@H](CC(N)=O)NC(=O)[C@H](Cc3ccccc3)NC(=O)[C@H](C)NC(=O)[C@H](C)NC(=O)[C@H](CC(=O)O)NC(=O)[C@H](CC(=O)O)NC1=O)NC(=O)[C@H](CC(C)(C)C)NC(=O)[C@H](CC(=O)O)NC2=O (stereo partly drawn) [I-546, Ac-PL3-Asp-Npg-B5-Asp-Asp-Ala-Ala-Phe-Asn-S8-Phe-BztA-Gln-NH2] |  | 12100 nM | 2.4 | 16 nM | 50 µM (≈ 93.5 µg/mL) |  | 
CC[C@H](C)[C@@H]1NC(=O)[C@H](CC(=O)O)NC(=O)[C@]2(CC=CCCCC3(CCCC=CCCCCCC[C@@](C)(C(=O)N[C@@H](Cc4ccccc4OC)C(=O)N[C@@H](Cc4csc5ccccc45)C(=O)N[C@@H](CCC(N)=O)C(N)=O)NC(=O)[C@H](CC(N)=O)NC(=O)[C@H](Cc4ccccc4)NC(=O)[C@H](C)NC(=O)[C@H](C)NC(=O)[C@H](CC(=O)O)NC(=O)[C@H](CC(=O)O)NC3=O)NC1=O)CCCN2C(C)=O (stereo partly drawn) [I-550, Ac-PL3-Asp-Ile-B5-Asp-Asp-Ala-Ala-Phe-Asn-S8-2OMeF-BztA-Gln-NH2] |  | 21400 nM |  | 30 nM | 50 µM (≈ 94.3 µg/mL) | 2.343 | 30 nM
CC(=O)N1CCC[C@]12CC=CCCCC1(CCCC=CCCCCCC[C@@](C)(C(=O)N[C@@H](Cc3ccccc3)C(=O)N[C@@H](Cc3csc4ccccc34)C(=O)N[C@@H](CCC(N)=O)C(N)=O)NC(=O)[C@H](CC(N)=O)NC(=O)[C@H](Cc3ccccc3)NC(=O)[C@H](C)NC(=O)[C@H](C)NC(=O)[C@H](CC(=O)O)NC(=O)[C@H](CC(=O)O)NC1=O)NC(=O)[C@H](CC(C)C)NC(=O)[C@H](CC(=O)O)NC2=O (stereo partly drawn) [I-563, Ac-PL3-Asp-Leu-B5-Asp-Asp-Ala-Ala-Phe-Asn-S8-Phe-BztA-Gln-NH2] |  | 15700 nM |  | 19 nM | 50 µM (≈ 92.8 µg/mL) | 2.317 | 19 nM

The next lines start with the values.

Solubility (Solubility in PBS; Solubility (uM)) | IC50 [1] | chromatographic logD (CHI Log D procedure) | IC50 [2, 3] | Solubility (Solubility in PBS) | CHI Log D (CHI Log D procedure) | IC50 ([2]; read-out: FP EC50) | Compound
 | 15600 nM |  | 17 nM | 50 µM (≈ 93.5 µg/mL) | 2.528 | 17 nM | CC(=O)N1CCC[C@]12CC=CCCCC1(CCCC=CCCCCCC[C@@](C)(C(=O)N[C@@H](Cc3ccccc3)C(=O)N[C@@H](Cc3csc4ccccc34)C(=O)N[C@@H](CCC(N)=O)C(N)=O)NC(=O)[C@H](CC(N)=O)NC(=O)[C@H](Cc3ccccc3)NC(=O)[C@H](C)NC(=O)[C@H](C)NC(=O)[C@H](CC(=O)O)NC(=O)[C@H](CC(=O)O)NC1=O)NC(=O)[C@H](CCC(C)C)NC(=O)[C@H](CC(=O)O)NC2=O (stereo partly drawn) [I-548, Ac-PL3-Asp-hLeu-B5-Asp-Asp-Ala-Ala-Phe-Asn-S8-Phe-BztA-Gln-NH2]
47 µM (≈ 87.9 µg/mL) | 16900 nM | 2.39 | 35 nM |  |  |  | CC[C@H](C)[C@@H]1NC(=O)[C@H](CC(=O)O)NC(=O)[C@]2(CC=CCCCC3(CCCC=CCCCCCC[C@@](C)(C(=O)N[C@@H](Cc4ccccc4)C(=O)N[C@@H](Cc4csc5ccccc45)C(=O)N[C@@H](CCC(N)=O)C(N)=O)NC(=O)[C@H](CC(N)=O)NC(=O)[C@H](Cc4ccccc4)NC(=O)[C@H](C)NC(=O)[C@H](C)NC(=O)[C@H](CCC(=O)O)NC(=O)[C@H](CC(=O)O)NC3=O)NC1=O)CCCN2C(C)=O (stereo partly drawn) [I-557, Ac-PL3-Asp-Ile-B5-Asp-Glu-Ala-Ala-Phe-Asn-S8-Phe-BztA-Gln-NH2]
